58 sequences from publication PMC8977642, “Unsupervised Mining of HLA-I Peptidomes Reveals New Binding Motifs and Potential False Positives in the Community Database” (Frontiers in Immunology, 2022) can be followed below.

The first assay concerns the target HLA-B*14:02 (Homo sapiens, UniProt P01889, A93T/A95T/C349S/D138N/D201E/E187T/E204Q/H137Y/K202T/Q94N/R155S/R180L/S121W/S35A/Y140F/Y195H/Y91C). In words: REVEAL MHC-peptide binding assay (ProImmune). The following applies: REVEAL MHC-peptide binding assay, versus positive control. From the text: To test whether outlier peptides identified by unsupervised motif clustering are false positives or true ligands with very weak binding affinity, we performed an HLA binding assay on 59 newly identified antigens for HLA-B*14:02 ( Supplementary Table 3 , 13 outliers and 46 non-outlier peptides). […] For LPFCRPGPEGQL, this peptide was likely called an outlier because the middle arginine residue was not predicted to take part in the 9-mer binding motif by NetMHCpan (the predicted core motif was LPFGPEGQL).
Figure 3 HLA binding assay for HLA-B*14:02. Peptide synthesis and binding assay were performed by ProImmune, Ltd. (see Methods). (A) Distributions of binding scores, measured as the percentages of the binding activity compared to a positive control, for clustered peptides (n = 46) and outlier peptides (n = 13). (B) Comparison of predicted percentage ranks of eluted ligand (% rank) and binding scores. The orange and red dashed lines indicate the 2% rank and 0.5% rank thresholds for weak and strong binders, respectively.
The binding activities of selected 59 newly identified candidate antigens for HLA-B*14:02 ( Supplementary Table 3 ) were assessed using the REVEAL MHC-peptide binding assay provided by ProImmune, Ltd. (Oxford, UK). Peptides were synthesized and quality checked using MALDI-TOF mass spectrometry by ProImmune, Ltd. (Oxford, UK). Binding activities were reported as percentage relative to the affinity of a positive control (a known high-affinity T cell epitope for HLA-B*14:02). According to the experiment report provided by the company, the standard error of the reported affinities is 3 percentage points.
As to “LPFCRPGPEGQL [candidate antigen for HLA-B*14:02, outlier]”, the “HLA binding activity (in words)” value is reported as “high binding affinity”. Still for that read-out and setting: for “LRNGGHFVI [candidate antigen for HLA-B*14:02, outlier]” the value was “high binding affinity”.

The same assay, now with this note: relative to a known high-affinity T cell epitope for HLA-B*14:02; synthesized peptides; standard error 3 percentage points.
As for “TYDDATKTFTVTE [candidate antigen for HLA-B*14:02, non-outlier]”, the “Binding Test (binding activity as percentage of positive control)” value is 0%. The same measure, in the same setting: in the case of “TYDDATKTF [candidate antigen for HLA-B*14:02, outlier]” it was 0.1%; in that of “LPFCRPGPEGQL [candidate antigen for HLA-B*14:02, outlier]”, 75.9%. “SQYQRLLCI [candidate antigen for HLA-B*14:02, non-outlier]”: the “Binding Test (binding activity as percentage of positive control)” value came to 80.3%. “DLPEHAVL [candidate antigen for HLA-B*14:02, non-outlier]”: the “Binding Test (binding activity as percentage of positive control)” value was 14.2%. Take “SRLDSVLLL [candidate antigen for HLA-B*14:02, non-outlier]”: the “Binding Test (binding activity as percentage of positive control)” value is on record as 43.9%. For “FGYSRHTPF [candidate antigen for HLA-B*14:02, non-outlier]”, the “Binding Test (binding activity as percentage of positive control)” value amounted to 24.8%. On the same count and under the same terms, in the case of “CDFVHQAL [candidate antigen for HLA-B*14:02, non-outlier]” it was 41.7%. In the case of “AQGGVLPNI [candidate antigen for HLA-B*14:02, outlier]”, the “Binding Test (binding activity as percentage of positive control)” value was 0.2%. In the case of “VAPGKDLTK [candidate antigen for HLA-B*14:02, non-outlier]”, the “Binding Test (binding activity as percentage of positive control)” value was 0%.

On to “DQFLKICL [candidate antigen for HLA-B*14:02, non-outlier]”, for which the “Binding Test (binding activity as percentage of positive control)” value worked out at 62.6%.

Turning to “YQILHECL [candidate antigen for HLA-B*14:02, non-outlier]”, the “Binding Test (binding activity as percentage of positive control)” value came out at 50.1%.

As to “CQVTHISL [candidate antigen for HLA-B*14:02, non-outlier]”, the “Binding Test (binding activity as percentage of positive control)” value was 56.7%. Take “GLGILDPVLL [candidate antigen for HLA-B*14:02, non-outlier]”: the “Binding Test (binding activity as percentage of positive control)” value is on record as 0.1%. For “AVSMIPPLLL [candidate antigen for HLA-B*14:02, outlier]”, the “Binding Test (binding activity as percentage of positive control)” value was 0.2%. Regarding “SPTCHACL [candidate antigen for HLA-B*14:02, non-outlier]”, the “Binding Test (binding activity as percentage of positive control)” value was determined as 19.8%. On the same count and under the same terms, for “LLSPQQTI [candidate antigen for HLA-B*14:02, non-outlier]” the value was 0.8%.

Regarding “CEVTHQGL [candidate antigen for HLA-B*14:02, non-outlier]”, the “Binding Test (binding activity as percentage of positive control)” value turned out to be 25.4%. “DRYLPGETF [candidate antigen for HLA-B*14:02, non-outlier]”: the “Binding Test (binding activity as percentage of positive control)” value worked out at 61.4%. “QQLCHQTL [candidate antigen for HLA-B*14:02, non-outlier]”: the “Binding Test (binding activity as percentage of positive control)” value came to 56.8%. Same read-out and setting: in the case of “DQVGGLGR [candidate antigen for HLA-B*14:02, non-outlier]” it was 0.2%.

Take “QQILRDAL [candidate antigen for HLA-B*14:02, non-outlier]”: the “Binding Test (binding activity as percentage of positive control)” value stood at 56.2%.

Turning to “QAYMNQRKL [candidate antigen for HLA-B*14:02, non-outlier]”, the “Binding Test (binding activity as percentage of positive control)” value is recorded as 0.2%. Regarding “PLGMNQLQAL [candidate antigen for HLA-B*14:02, non-outlier]”, the “Binding Test (binding activity as percentage of positive control)” value worked out at 0.3%. For the sequence “LNVLHLDT [candidate antigen for HLA-B*14:02, non-outlier]”, the “Binding Test (binding activity as percentage of positive control)” value worked out at 5%. On the same count and under the same terms, in the case of “IHTLVESL [candidate antigen for HLA-B*14:02, non-outlier]” it was 0.2%; in that of “CRFEGQFSI [candidate antigen for HLA-B*14:02, non-outlier]”, 63.5%; in that of “REQFSSRGS [candidate antigen for HLA-B*14:02, outlier]”, 0%. Consider “HQITHQAM [candidate antigen for HLA-B*14:02, non-outlier]”, for which the “Binding Test (binding activity as percentage of positive control)” value is given as 52.4%.

In the case of “HPASHPEL [candidate antigen for HLA-B*14:02, non-outlier]”, the “Binding Test (binding activity as percentage of positive control)” value is 29.9%.

On to “QVWGTLTSL [candidate antigen for HLA-B*14:02, non-outlier]”, for which the “Binding Test (binding activity as percentage of positive control)” value was found to be 0.1%. Turning to “QTWWHGVL [candidate antigen for HLA-B*14:02, non-outlier]”, the “Binding Test (binding activity as percentage of positive control)” value came out at 74.6%. For the sequence “LNQRAQAVL [candidate antigen for HLA-B*14:02, outlier]”, the “Binding Test (binding activity as percentage of positive control)” value turned out to be 3.1%. “LPFCHSEL [candidate antigen for HLA-B*14:02, non-outlier]”: the “Binding Test (binding activity as percentage of positive control)” value is listed as 60.2%. Regarding “YATLHHVI [candidate antigen for HLA-B*14:02, non-outlier]”, the “Binding Test (binding activity as percentage of positive control)” value was 42.2%.

Regarding “QPAEHLQL [candidate antigen for HLA-B*14:02, non-outlier]”, the “Binding Test (binding activity as percentage of positive control)” value is reported as 49.4%. Take “LRNGGHFVI [candidate antigen for HLA-B*14:02, outlier]”: the “Binding Test (binding activity as percentage of positive control)” value turned out to be 61.2%. For the sequence “SCRVHKII [candidate antigen for HLA-B*14:02, non-outlier]”, the “Binding Test (binding activity as percentage of positive control)” value was 8.3%. In the case of “IRLENEIQ [candidate antigen for HLA-B*14:02, non-outlier]”, the “Binding Test (binding activity as percentage of positive control)” value worked out at 0.1%. On the same count and under the same terms, for “LGFTHHCL [candidate antigen for HLA-B*14:02, non-outlier]” the value was 47.6%. With “TRIEKRIVI [candidate antigen for HLA-B*14:02, non-outlier]”, the “Binding Test (binding activity as percentage of positive control)” value is 54.9%. On the same count and under the same terms, in the case of “QEVKQGKLL [candidate antigen for HLA-B*14:02, non-outlier]” it was 0.1%; in that of “ESGPSIVHRKCF [candidate antigen for HLA-B*14:02, outlier]”, 0.1%. On the same count and under the same terms, in the case of “NQFQRQAAV [candidate antigen for HLA-B*14:02, non-outlier]” it was 63.6%; in that of “LSYVSIMAAI [candidate antigen for HLA-B*14:02, non-outlier]”, 0.2%; in that of “LSSLSLPILI [candidate antigen for HLA-B*14:02, outlier]”, 0.1%. As to “QQFAHPPL [candidate antigen for HLA-B*14:02, non-outlier]”, the “Binding Test (binding activity as percentage of positive control)” value came to 82.8%. With “CHIYHHAL [candidate antigen for HLA-B*14:02, non-outlier]”, the “Binding Test (binding activity as percentage of positive control)” value is reported as 55.5%. Regarding “LTGDIHAITAA [candidate antigen for HLA-B*14:02, outlier]”, the “Binding Test (binding activity as percentage of positive control)” value is on record as 0.2%. Regarding “QQGTHLSL [candidate antigen for HLA-B*14:02, non-outlier]”, the “Binding Test (binding activity as percentage of positive control)” value was found to be 47.7%. “LPIIHCTL [candidate antigen for HLA-B*14:02, non-outlier]”: the “Binding Test (binding activity as percentage of positive control)” value was 56.4%. Same read-out and setting: for “CVTIHEAL [candidate antigen for HLA-B*14:02, non-outlier]” the value was 32.1%; for “AAPARVSVA [candidate antigen for HLA-B*14:02, outlier]”, 0.2%.

Take “QGLSILLPKI [candidate antigen for HLA-B*14:02, outlier]”: the “Binding Test (binding activity as percentage of positive control)” value is 0%. Still for that read-out and setting: for “SSSKGSLGGGF [candidate antigen for HLA-B*14:02, non-outlier]” the value was 0.2%. The same measure, in the same setting: in the case of “DNAVHCVI [candidate antigen for HLA-B*14:02, non-outlier]” it was 26.2%; in that of “DQYKRETI [candidate antigen for HLA-B*14:02, non-outlier]”, 33.9%.

As to “ETASDLLLHSAL [candidate antigen for HLA-B*14:02, non-outlier]”, the “Binding Test (binding activity as percentage of positive control)” value came out at 59.3%.
